Data: patent US20040166509A1, “Detecting hormonally active compounds” (priority 2002, published 2004)

System: liver cDNAs of adult male LMB
Test: LMB gene arrays of SSH-derived cDNAs: liver of fish treated with androgens
Type: in vivo, largemouth bass (LMB)
Settings: DHT 62.5 μg/g, 11-KT 20 μg/g vs DMSO
Procedure: For each cDNA clone, the general background of each membrane was subtracted from the average value of the duplicate spots on the membrane. The values were then normalized to the average value of seven cDNA clones specific to ribosomal genes and the fold change calculated by dividing the mean of each treatment by the mean of the control. Those genes which changed by 2-fold or more were graphed. Significant differences (p<0.05) were determined by ANOVA and secondary testing was done by using […].

C[C@]12CCC(=O)C[C@@H]1CC[C@@H]1[C@@H]2CC[C@]2(C)[C@@H](O)CC[C@@H]12 [DHT, dihydrotestosterone]
24-1 (LOC L1) change: down
53-1 (LOC B2) change: down
68-1 (LOC C2) change: down
97-8 (LOC F2) change: up (Those genes which changed by 2-fold or more were graphed)
ALDOLASE B (LOC K2) change: down
ALPHA 1 ANTI-TRYPSIN (LOC L2) change: down
ALPHA TUBULIN (LOC M2) change: down
APOL[…] (LOC C3) change: down
ATP SYNTHASE (LOC K7) change: up (Those genes which changed by 2-fold or more were graphed)
ATPASE 6 (LOC E3) change: up (Those genes which changed by 2-fold or more were graphed)
ATPASE SUBUNIT 6 (LOC F9) change: up (Those genes which changed by 2-fold or more were graphed)
COMPLEMENT C3 (LOC L3) change: down
CYSTATIN (LOC O3) change: down
ER GAMMA 5′ 2F (LOC L14) change: down
EST DHT64 (LOC D4) change: up (Those genes which changed by 2-fold or more were graphed)
EST P4_06 (LOC L8) change: up (Those genes which changed by 2-fold or more were graphed)
EST P4_D08 (LOC N8) change: up (Those genes which changed by 2-fold or more were graphed)
EST SEASONAL 9 (LOC D13) change: up (Those genes which changed by 2-fold or more were graphed)
EST SEASONAL 11 (LOC O6) change: down
EST SEASONAL 12 (LOC B8) change: up (Those genes which changed by 2-fold or more were graphed)
EST SEASONAL 42 (LOC H10) change: down
EST SEASONAL 51 (LOC K11) change: down
EST SEASONAL 55 (LOC M4) change: down
EST SEASONAL 56 (LOC F12) change: up (Those genes which changed by 2-fold or more were graphed)
EST SEASONAL 62 (LOC B14) change: up (Those genes which changed by 2-fold or more were graphed)
EST SEASONAL 64 (LOC H7) change: up (Those genes which changed by 2-fold or more were graphed)
EST SEASONAL 72 (LOC K12) change: down
EST SEASONAL 88 (LOC E12) change: up (Those genes which changed by 2-fold or more were graphed)
EST SEASONAL 90 (LOC L9) change: down
EST SEASONAL F17 (LOC B9) change: down
EST SEASONAL F21 (LOC O13) change: down
ESTDHT60 (LOC F5) change: down
ESTP4_C04 (LOC G9) change: down
ESTP4_E01 (LOC K5) change: down
ESTP4_E06 (LOC D6) change: down
ESTP4_H07 (LOC K13) change: up (Those genes which changed by 2-fold or more were graphed)
GP3 11C (LOC K1) change: down
G[…] (LOC G5) change: down-regulated and down
HAPTOGLOBIN (LOC I5) change: down
HEPCIDIN (LOC J5) change: down
IGF-I (LOC M5) change: down
LDL RC (LOC J10) change: down
LMB24-1 (Unknown) differentially expressed by androgens: dn-reg DHT;
LMB53-1 (unknown) differentially expressed by androgens: Down-reg. E2;
LMB68-1 (hypothetical protein) differentially expressed by: Dn-reg DHT
LMB97 choriogenin-3 differentially expressed by androgens: Up-reg E2;
LMB112-1 cathepsin (Aspartic protease) differentially expressed by androgens: up-reg E; NP:
LMB151 vitellogenin receptor differentially expressed by: Dn-reg
LMB CIS-RETIN DEHYDRO (cis-retinol dehydrogenase) differentially expressed by: up-reg DHT
LMB EST--SEASONAL_64 differentially expressed by: up-reg DHT;
LMB EST--SEASONAL_72 differentially expressed by: Dn-reg DHT;
LMB EST--SEASONAL_88 differentially expressed by: up-reg DHT;
LMB EST--SEASONAL_90 differentially expressed by: dn-reg DHT
LMB EST--SEASONAL_F21 differentially expressed by: Dn-reg DHT
LMB EST-SEASONAL_55 differentially expressed by: Dn-reg 11-KT;
LMB EST-SEASONAL_56 differentially expressed by: up-reg DHT;
LMB GLUT-PEROX III (Glutathione peroxidase III) differentially expressed by: Dn-reg DHT
LMB LIV-REGER-PROT differentially expressed by: down by DHT
LMB RIKEN 1110001M01 differentially expressed by: up by 11KT;
LMB_ALPHA-TUBULIN (alpha tubulin) differentially expressed by: Dn-reg 11-kt;
LMB_ATPASE 6 (ATPase subunit 6) differentially expressed by: up-reg DHT
LMB_COMPLEMENT-C3 (Complement C3 precursor) differentially expressed by: Dn-reg DHT;
LMB_EST-SEASONAL_09 differentially expressed by: up-reg DHT;
LMB_EST-SEASONAL_12 differentially expressed by: up-reg DHT
LMB_EST-SEASONAL_51 differentially expressed by: dn 11-KT;
LMB_ESTDHT_62 differentially expressed by: up-reg DHT;
LMB_ESTP4-E01 differentially expressed by: down by DHT
LMB_HAPTOGLOBIN (Haptoglobin) differentially expressed by: Dn-reg DHT
LMB_HEPCIDIN (Hepcidin precursor) differentially expressed by: dn-reg DHT
LMB_LDL RC (LDL receptor) differentially expressed by: Dn-reg DHT;
LMB_LECTIN STL2 (Rhamnose binding lectin STL2) differentially expressed by: up-reg DHT
LMB_MITOCHON-ATP-SYNTHASE (ATP synthase alpha chain mitochondrial precursor) differentially expressed by: up-reg DHT
LMB_RXR INTERACT PROT (Retinoid X receptor interacting protein) differentially expressed by: Dn-reg 11-KT;
LMB_SOL-CAR-25A#5 (solute carrier family 25 alpha member 5) differentially expressed by: up-reg DHT;
LMB_SSAT (SSAT) differentially expressed by: up-reg DHT;
LMB_ZPC1 (ZPC1) differentially expressed by: up-reg DHT;
LMB_ZPC4 (ZPC4) differentially expressed by: up-reg DHT;
PTTP (LOC O10) change: up (Those genes which changed by 2-fold or more were graphed)
RETINOL DEHYDROGENASE (LOC M11) change: up (Those genes which changed by 2-fold or more were graphed)
RHAMNOSE BINDING LECTIN (LOC G13) change: up (Those genes which changed by 2-fold or more were graphed)
RIKEN 1110001M01 (LOC O11) change: up (Those genes which changed by 2-fold or more were graphed)
RIKEN 2700038C09 (LOC D12) change: down
RXR I[…] (LOC L11) change: down
SOLUTE CARRIER (LOC B13) change: up (Those genes which changed by 2-fold or more were graphed)
SSAT (LOC C13) change: up (Those genes which changed by 2-fold or more were graphed)
TFIID (change to liver regeration related protein) (LOC M12) change: down
TFIIIA (LOC J13) change: up (Those genes which changed by 2-fold or more were graphed)
UNNAMED PROTEIN (LOC C14) change: up (Those genes which changed by 2-fold or more were graphed)
VTG PRECURSOR (LOC D14) change: up (Those genes which changed by 2-fold or more were graphed)
VTG RC (LOC M14) change: down
ZPC1 (LOC H14) change: up (Those genes which changed by 2-fold or more were graphed)
ZPC4 (LOC I14) change: up (Those genes which changed by 2-fold or more were graphed)
warm water acclim (LOC E14) change: up (Those genes which changed by 2-fold or more were graphed)
